Laboratory results as given in PubChem BioAssay AID1919007 (Molecular Pharmacology Branch, DTP, NCI, 2023).

Tested on: A498 complex spheroids with HUVEC/MSC, growth
Assay: Anticancer human tumor A498 cell line growth inhibition [AhR];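 note: seven day exposure starting three days after spheroid seeding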;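 for viability, T/C: luminescence signal used as a surrogate for viable cells; luminescence viability scaled so 100% equals DMSO vehicle wells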
Conditions: for IC50: curve of first compound; for viability, T/C: stronger effect = lower value
How it was run: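 Spheroids combined tumor cells with HUVEC endothelial cells and human MSCs as stroma. AhR antagonists were paired with standard or investigational drugs, each dosed in half-log steps down from near clinical Cmax, or from 10 microM where Cmax was unknown.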

[1] = second compound 0.1 µM, first compound 0.0316 µM
[2] = second compound 0.1 µM, first compound 0.1 µM
[3] = second compound 0.1 µM, first compound 0.316 µM
[4] = second compound 0.1 µM, first compound 1 µM
[5] = second compound 0.1 µM, first compound 3.16 µM
[6] = second compound 0.1 µM, first compound 10 µM
[7] = second compound 0.316 µM, first compound 0.0316 µM
[8] = second compound 0.316 µM, first compound 0.1 µM
[9] = second compound 0.316 µM, first compound 0.316 µM
[10] = second compound 0.316 µM, first compound 1 µM
[11] = second compound 0.316 µM, first compound 3.16 µM
[12] = second compound 0.316 µM, first compound 10 µM
[13] = second compound 1 µM, first compound 0.0316 µM
[14] = second compound 1 µM, first compound 0.1 µM
[15] = second compound 1 µM, first compound 0.316 µM
[16] = second compound 1 µM, first compound 1 µM
[17] = second compound 1 µM, first compound 3.16 µM
[18] = second compound 1 µM, first compound 10 µM
[19] = second compound 3.16 µM, first compound 0.0316 µM
[20] = second compound 3.16 µM, first compound 0.1 µM
[21] = second compound 3.16 µM, first compound 0.316 µM
[22] = second compound 3.16 µM, first compound 1 µM
[23] = second compound 3.16 µM, first compound 3.16 µM
[24] = second compound 3.16 µM, first compound 10 µM
[25] = second compound 10 µM, first compound 0.0316 µM
[26] = second compound 10 µM, first compound 0.1 µM
[27] = second compound 10 µM, first compound 0.316 µM
[28] = second compound 10 µM, first compound 1 µM
[29] = second compound 10 µM, first compound 3.16 µM
[30] = second compound 10 µM, first compound 10 µM

## CC(C)CC(NC(=O)C(Cc1ccccc1)NC(=O)c1cnccn1)B(O)O (stereo not given) + Cc1cncc(-c2nc(NCCc3c[nH]c4ccccc34)c3ncn(C(C)C)c3n2)c1
Second compound 0.1 µM
  IC50: 4.75 nM
Second compound 0.316 µM
  IC50: 5.08 nM
Second compound 1 µM
  IC50: 4.69 nM
Second compound 3.16 µM
  IC50: 3.34 nM
Second compound 10 µM
  IC50: < 0.949 nM
Second compound 0.1 µM, first compound 0.000949 µM
  viability, T/C: 91%
Second compound 0.1 µM, first compound 0.003 µM
  viability, T/C: 79.8%
Second compound 0.1 µM, first compound 0.00949 µM
  viability, T/C: 5.02%
Second compound 0.1 µM, first compound 0.03 µM
  viability, T/C: 1.12%
Second compound 0.1 µM, first compound 0.0949 µM
  viability, T/C: 0.37%
Second compound 0.1 µM, first compound 0.3 µM
  viability, T/C: 0.34%
Second compound 0.316 µM, first compound 0.000949 µM
  viability, T/C: 95.5%
Second compound 0.316 µM, first compound 0.003 µM
  viability, T/C: 88.7%
Second compound 0.316 µM, first compound 0.00949 µM
  viability, T/C: 4.18%
Second compound 0.316 µM, first compound 0.03 µM
  viability, T/C: 1.1%
Second compound 0.316 µM, first compound 0.0949 µM
  viability, T/C: 0.36%
Second compound 0.316 µM, first compound 0.3 µM
  viability, T/C: 0.3%
Second compound 1 µM, first compound 0.000949 µM
  viability, T/C: 88.2%
Second compound 1 µM, first compound 0.003 µM
  viability, T/C: 79.1%
Second compound 1 µM, first compound 0.00949 µM
  viability, T/C: 4.22%
Second compound 1 µM, first compound 0.03 µM
  viability, T/C: 0.83%
Second compound 1 µM, first compound 0.0949 µM
  viability, T/C: 0.33%
Second compound 1 µM, first compound 0.3 µM
  viability, T/C: 0.36%
Second compound 3.16 µM, first compound 0.000949 µM
  viability, T/C: 62.5%
Second compound 3.16 µM, first compound 0.003 µM
  viability, T/C: 54.9%
Second compound 3.16 µM, first compound 0.00949 µM
  viability, T/C: 3.44%
Second compound 3.16 µM, first compound 0.03 µM
  viability, T/C: 0.63%
Second compound 3.16 µM, first compound 0.0949 µM
  viability, T/C: 0.22%
Second compound 3.16 µM, first compound 0.3 µM
  viability, T/C: 0.3%
Second compound 10 µM, first compound 0.000949 µM
  viability, T/C: 5.04%
Second compound 10 µM, first compound 0.003 µM
  viability, T/C: 3.31%
Second compound 10 µM, first compound 0.00949 µM
  viability, T/C: 0.4%
Second compound 10 µM, first compound 0.03 µM
  viability, T/C: 0.14%
Second compound 10 µM, first compound 0.0949 µM
  viability, T/C: 0.15%
Second compound 10 µM, first compound 0.3 µM
  viability, T/C: 0.22%

## COc1cc(Nc2ncc3c(n2)-c2ccc(Cl)cc2C(c2c(F)cccc2OC)=NC3)ccc1C(=O)O + Cc1cncc(-c2nc(NCCc3c[nH]c4ccccc34)c3ncn(C(C)C)c3n2)c1
Second compound 0.1 µM
  IC50: 1460 nM
Second compound 0.316 µM
  IC50: 1790 nM
Second compound 1 µM
  IC50: 918 nM
Second compound 3.16 µM
  IC50: 418 nM
Second compound 10 µM
  IC50: < 31.6 nM
[1]
  viability, T/C: 68.9%
[2]
  viability, T/C: 72%
[3]
  viability, T/C: 64%
[4]
  viability, T/C: 51.5%
[5]
  viability, T/C: 44.2%
[6]
  viability, T/C: 32.4%
[7]
  viability, T/C: 71.9%
[8]
  viability, T/C: 67.8%
[9]
  viability, T/C: 69.6%
[10]
  viability, T/C: 54%
[11]
  viability, T/C: 45.3%
[12]
  viability, T/C: 35%
[13]
  viability, T/C: 71.2%
[14]
  viability, T/C: 71.4%
[15]
  viability, T/C: 62.4%
[16]
  viability, T/C: 47.4%
[17]
  viability, T/C: 41.4%
[18]
  viability, T/C: 33.4%
[19]
  viability, T/C: 56.9%
[20]
  viability, T/C: 58%
[21]
  viability, T/C: 52.2%
[22]
  viability, T/C: 42.3%
[23]
  viability, T/C: 35.3%
[24]
  viability, T/C: 30.5%
[25]
  viability, T/C: 4.64%
[26]
  viability, T/C: 6.08%
[27]
  viability, T/C: 4.95%
[28]
  viability, T/C: 4.83%
[29]
  viability, T/C: 4.84%
[30]
  viability, T/C: 6.67%

## Cn1ncnc1C1c2n[nH]c(=O)c3cc(F)cc(c23)NC1c1ccc(F)cc1 (stereo not given) + Cc1cncc(-c2nc(NCCc3c[nH]c4ccccc34)c3ncn(C(C)C)c3n2)c1
Second compound 0.1 µM
  IC50: > 100 nM
Second compound 0.316 µM
  IC50: > 100 nM
Second compound 1 µM
  IC50: > 100 nM
Second compound 3.16 µM
  IC50: > 100 nM
Second compound 10 µM
  IC50: < 0.316 nM
Second compound 0.1 µM, first compound 0.000316 µM
  viability, T/C: 96.5%
Second compound 0.1 µM, first compound 0.001 µM
  viability, T/C: 96.6%
Second compound 0.1 µM, first compound 0.00316 µM
  viability, T/C: 96.6%
Second compound 0.1 µM, first compound 0.01 µM
  viability, T/C: 89%
[1]
  viability, T/C: 87%
[2]
  viability, T/C: 94.1%
Second compound 0.316 µM, first compound 0.000316 µM
  viability, T/C: 97.1%
Second compound 0.316 µM, first compound 0.001 µM
  viability, T/C: 99.2%
Second compound 0.316 µM, first compound 0.00316 µM
  viability, T/C: 92.9%
Second compound 0.316 µM, first compound 0.01 µM
  viability, T/C: 92.3%
[7]
  viability, T/C: 95.2%
[8]
  viability, T/C: 92.3%
Second compound 1 µM, first compound 0.000316 µM
  viability, T/C: 88.4%
Second compound 1 µM, first compound 0.001 µM
  viability, T/C: 98.9%
Second compound 1 µM, first compound 0.00316 µM
  viability, T/C: 91.2%
Second compound 1 µM, first compound 0.01 µM
  viability, T/C: 84.4%
[13]
  viability, T/C: 85.5%
[14]
  viability, T/C: 89.8%
Second compound 3.16 µM, first compound 0.000316 µM
  viability, T/C: 60.6%
Second compound 3.16 µM, first compound 0.001 µM
  viability, T/C: 63.6%
Second compound 3.16 µM, first compound 0.00316 µM
  viability, T/C: 65%
Second compound 3.16 µM, first compound 0.01 µM
  viability, T/C: 70.1%
[19]
  viability, T/C: 59.8%
[20]
  viability, T/C: 67.8%
Second compound 10 µM, first compound 0.000316 µM
  viability, T/C: 5.06%
Second compound 10 µM, first compound 0.001 µM
  viability, T/C: 6.23%
Second compound 10 µM, first compound 0.00316 µM
  viability, T/C: 6.28%
Second compound 10 µM, first compound 0.01 µM
  viability, T/C: 7.11%
[25]
  viability, T/C: 6.12%
[26]
  viability, T/C: 8.13%

## NS(=O)(=O)OCC1CC(n2ccc3c(NC4CCc5ccccc54)ncnc32)CC1O (stereo not given) + Cc1cncc(-c2nc(NCCc3c[nH]c4ccccc34)c3ncn(C(C)C)c3n2)c1
Second compound 0.1 µM
  IC50: 448 nM
Second compound 0.316 µM
  IC50: 412 nM
Second compound 1 µM
  IC50: 244 nM
Second compound 3.16 µM
  IC50: < 31.6 nM
Second compound 10 µM
  IC50: < 31.6 nM
[1]
  viability, T/C: 87.5%
[2]
  viability, T/C: 86.2%
[3]
  viability, T/C: 55.5%
[4]
  viability, T/C: 33.3%
[5]
  viability, T/C: 23.7%
[6]
  viability, T/C: 18.3%
[7]
  viability, T/C: 89.2%
[8]
  viability, T/C: 81.6%
[9]
  viability, T/C: 52.1%
[10]
  viability, T/C: 35.4%
[11]
  viability, T/C: 22.4%
[12]
  viability, T/C: 19.2%
[13]
  viability, T/C: 78.3%
[14]
  viability, T/C: 71.3%
[15]
  viability, T/C: 41.6%
[16]
  viability, T/C: 29.7%
[17]
  viability, T/C: 20.3%
[18]
  viability, T/C: 17.9%
[19]
  viability, T/C: 19.1%
[20]
  viability, T/C: 18.4%
[21]
  viability, T/C: 18.8%
[22]
  viability, T/C: 18.3%
[23]
  viability, T/C: 15.5%
[24]
  viability, T/C: 13.8%
[25]
  viability, T/C: 1.63%
[26]
  viability, T/C: 1.35%
[27]
  viability, T/C: 0.89%
[28]
  viability, T/C: 0.94%
[29]
  viability, T/C: 0.76%
[30]
  viability, T/C: 0.77%

## O=C(C=Cc1cccc(S(=O)(=O)Nc2ccccc2)c1)NO + Cc1cncc(-c2nc(NCCc3c[nH]c4ccccc34)c3ncn(C(C)C)c3n2)c1
Second compound 0.1 µM
  IC50: 1260 nM
Second compound 0.316 µM
  IC50: 1380 nM
Second compound 1 µM
  IC50: 1120 nM
Second compound 3.16 µM
  IC50: 119 nM
Second compound 10 µM
  IC50: < 31.6 nM
[1]
  viability, T/C: 92.1%
[2]
  viability, T/C: 90.3%
[3]
  viability, T/C: 63.2%
[4]
  viability, T/C: 54.4%
[5]
  viability, T/C: 37.4%
[6]
  viability, T/C: 15.1%
[7]
  viability, T/C: 94.5%
[8]
  viability, T/C: 88.1%
[9]
  viability, T/C: 73.5%
[10]
  viability, T/C: 53.8%
[11]
  viability, T/C: 36.7%
[12]
  viability, T/C: 13.8%
[13]
  viability, T/C: 83.9%
[14]
  viability, T/C: 85%
[15]
  viability, T/C: 64.7%
[16]
  viability, T/C: 52.4%
[17]
  viability, T/C: 33.5%
[18]
  viability, T/C: 14.9%
[19]
  viability, T/C: 48.5%
[20]
  viability, T/C: 51.9%
[21]
  viability, T/C: 50%
[22]
  viability, T/C: 42.5%
[23]
  viability, T/C: 31.2%
[24]
  viability, T/C: 11.8%
[25]
  viability, T/C: 4.64%
[26]
  viability, T/C: 4.39%
[27]
  viability, T/C: 4.66%
[28]
  viability, T/C: 3.81%
[29]
  viability, T/C: 2.39%
[30]
  viability, T/C: 2.67%
